Test results from ChEMBL document CHEMBL1201862, “PubChem BioAssay data set” (2004).
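Compound exposure: 48 hours, 5 concentrations, 96-well plates. GI50 marks 50% less growth.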 The source made the active and inactive calls. No stated cut-off is given here; in the data, active = GI50 up to about 1.1 µM and inactive = higher.

Experiments:
Experiment in all cases: NCI-60 cell line screen, 48 h
[1] = test system: UO-31
[2] = test system: LOX IMVI
[3] = test system: UACC-62
[4] = test system: EKVX
[5] = test system: RPMI-8226
[6] = test system: SF-268
[7] = test system: COLO 205
[8] = test system: NCI-H522
[9] = test system: DU-145
[10] = test system: SK-OV-3
[11] = test system: SNB-19
[12] = test system: OVCAR-4
[13] = test system: RXF 393
[14] = test system: BT-549
[15] = test system: 786-0
[16] = test system: HOP-62
[17] = test system: PC-3
[18] = test system: K562
[19] = test system: NCI/ADR-RES
[20] = test system: HCT-116

Measured: GI50

O=C(O)c1c(-c2c3ccc(=O)cc-3oc3cc(O)ccc23)cc2ccccc2c1-c1ccccc1
inactive: [1] > 100 µM | [2] > 100 µM | [3] > 100 µM | [4] > 100 µM | [5] > 100 µM | [6] > 100 µM | [7] > 100 µM | [8] > 100 µM | [9] > 100 µM | [10] > 100 µM | [11] > 100 µM | [12] > 100 µM | [13] > 100 µM | [14] > 100 µM | [15] > 100 µM | [16] > 100 µM | [17] > 100 µM | [18] 4.51 µM | [19] > 100 µM | [20] > 100 µM

O=c1oc2ccc(Cl)cc2cc1C1=CSC2=NCCN12
inactive: [1] 20.7 µM | [2] 18.9 µM | [3] 19.5 µM | [4] 20.6 µM | [5] 20.4 µM | [6] 17.8 µM | [7] 20.9 µM | [8] 18.7 µM | [9] 19.3 µM | [10] 38.1 µM | [11] 25 µM | [12] 23.6 µM | [13] 21.3 µM | [14] 19.7 µM | [15] 18.4 µM | [16] 17.4 µM | [17] 21.7 µM | [18] 18.2 µM | [19] 44.4 µM | [20] 17.6 µM

CCNCCCCNCCCCNCCCCNCCCCNCC
inactive: [1] 53.6 µM | [2] 32 µM | [3] 14.4 µM | [4] 53.5 µM | [5] 53 µM | [6] 48.8 µM | [7] 43.8 µM | [8] > 100 µM | [9] > 100 µM | [10] > 100 µM | [11] 99.8 µM | [12] > 22.2 µM | [13] 27.7 µM | [14] > 100 µM | [15] 34.8 µM | [16] 26.4 µM | [17] > 100 µM | [18] 57 µM | [19] > 100 µM | [20] 11.4 µM

COC1(OC)C2(Cl)C(Cl)=C(Cl)C1(Cl)C1c3ccc(C(C)=O)c4cccc(c34)C12 (stereo not given)
inactive: [1] 27.5 µM | [2] 22.5 µM | [3] 23.5 µM | [4] 41.6 µM | [5] 5.82 µM | [6] 61.1 µM | [7] 12.8 µM | [8] 13.3 µM | [9] 26.2 µM | [10] 52.1 µM | [11] > 59 µM | [12] 27.9 µM | [13] 27.7 µM | [14] 47.6 µM | [15] 45.7 µM | [16] 63.4 µM | [17] 14.2 µM | [18] 6.38 µM | [19] 36.6 µM | [20] 6.47 µM

O=S(=O)(CC(Cl)c1ccccc1)c1nc2ccccc2s1 (stereo not given)
inactive: [1] 15.4 µM | [2] 1.5 µM | [3] 15.1 µM | [4] 15.8 µM | [5] 3.35 µM | [6] 13.6 µM | [7] 7.93 µM | [8] 1.85 µM | [9] 16.5 µM | [10] 18.7 µM | [11] 17.8 µM | [12] 19.8 µM | [13] 15 µM | [14] 2.98 µM | [15] 6.95 µM | [16] 23.1 µM | [17] 16 µM | [18] 2.81 µM | [19] 10.7 µM | [20] 9.86 µM

CCCCCCCCCCCCCCCCCc1cccc(OCOCCOC)c1C(=O)O
inactive: [1] 17 µM | [2] 24.6 µM | [3] 17.7 µM | [4] 18.9 µM | [5] 24.3 µM | [6] 17.2 µM | [7] 20.6 µM | [8] 14.9 µM | [9] 17.7 µM | [10] 14 µM | [11] 21.3 µM | [12] 19.5 µM | [13] 17.9 µM | [14] 16.9 µM | [15] 18.6 µM | [16] 18.8 µM | [17] 17.1 µM | [18] 30.5 µM | [19] 14.5 µM | [20] 19.4 µM

C=CCC1(OC(C)=O)C2OC(=O)C1(O)OCC2O (stereo not given)
inactive: [1] > 100 µM | [2] > 100 µM | [3] > 59.3 µM | [4] > 100 µM | [5] > 100 µM | [6] > 100 µM | [7] > 100 µM | [8] > 100 µM | [9] > 100 µM | [10] > 100 µM | [11] > 100 µM | [12] > 100 µM | [13] > 100 µM | [14] > 100 µM | [15] > 100 µM | [16] > 100 µM | [17] > 100 µM | [18] > 100 µM | [19] > 100 µM | [20] > 100 µM
